# According to patent US20120053165A1, “Novel Phenyl Imidazoles and Phenyl Triazoles As Gamma-Secretase Modulators” (Pfizer Inc., priority 2009, published 2012):
# Structures can show the parent of a compound that is named as a salt. Where two headings read alike, the source gives them in different places.
# Tested on: production of amyloid beta protein Aβ(1-42) in human WT-APP overexpressing CHO cells
# [1] = Homo sapiens, CHO, read-out: Aβ 42 IC50, Geometric mean of 2-8 determinations, human WT-APP overexpressing CHO cells
# [2] = Homo sapiens, CHO, read-out: GM Aβ 42B IC50, Geometric Mean of 2-8 Determinations, human WT-APP overexpressing CHO cells
# [3] = read-out: Aβ 42 IC50, Geometric mean of 2-8 determinations, human WT-APP overexpressing CHO cells
# 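Also: Aβ(1-42) released into conditioned medium captured by ELISA after roughly 24 h compound exposure, vehicle and inhibitor controls defining maximal and minimal inhibition.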
compound,measurement,setting,value
1-[4-({3-[(chloro- 5-methylphenoxy) methyl]azetidin- 1-yl}carbonyl)-2- methoxyphenyl]- 4-methyl-1H- imidazole trifluoroacetate salt [Example 139],IC50,"read-out: Aβ 42 IC50, Geometric mean of at least 2 determinations, human WT-APP overexpressing CHO cells",557 nM
"COc1cc(C(=O)NC2COc3c(F)cc(Cl)cc32)ccc1-n1cnc(C)c1 (single isomer, unassigned) [Example 127, N-(5-chloro-7-fluoro-2,3-dihydro-1-benzofuran-3-yl)-3-methoxy-4-(4-methyl-1H-imidazol-1-yl)benzamide trifluoroacetate salt]",IC50,[1],521 nM
"COc1cc(C(=O)NC2COc3ccc(Cl)cc32)ccc1-n1cnc(C)c1 (single isomer, unassigned) [Example 128, N-(5-chloro-2,3-dihydro-1-benzofuran-3-yl)-3-methoxy-4-(4-methyl-1H-imidazol-1-yl)benzamide]",IC50,"Homo sapiens, CHO, read-out: Aβ 42 IC50",521 nM
"COc1cc(C(=O)NCCc2cccc(C#N)c2)ccc1-n1cnc(C)c1 [Example 1, N-[2-(3-cyanophenyl)ethyl]-3-methoxy-4-(4-methyl-1H-imidazol-1-yl)benzamide]",IC50,[2],2920 nM
"COc1cc(C(=O)NCC(C)(O)c2ccc(Cl)cc2)ccc1-n1cnc(C)c1 (stereo not drawn) [Example 2, N-[2-(4-chlorophenyl)-2-hydroxypropyl]-3-methoxy-4-(4-methyl-1H-imidazol-1-yl)benzamide]",IC50,[2],942 nM
"C#CCOc1cc(C(=O)NCCc2cccc(Cl)c2)ccc1-n1cnc(C)c1 [Example 3, N-[2-(3-chlorophenyl)ethyl]-4-(4-methyl-1H-imidazol-1-yl)-3-(prop-2-yn-1-yloxy)benzamide]",IC50,[2],341 nM
"COc1cc(C(=O)NCc2cc(-c3cccc(Cl)c3)no2)ccc1-n1cnc(C)c1 [Example 4, N-{[3-(3-chlorophenyl)isoxazol-5-yl]methyl}-3-methoxy-4-(4-methyl-1H-imidazol-1-yl)benzamide]",IC50,[2],330 nM
"COc1cc(C(=O)NCc2nnc(-c3cccc(Cl)c3)o2)ccc1-n1cnc(C)c1 [Example 5, N-{[5-(3-chlorophenyl)-1,3,4-oxadiazol-2-yl]methyl}-3-methoxy-4-(4-methyl-1H-imidazol-1-yl)benzamide]",IC50,[2],1460 nM
"COc1cc(C(=O)NCCc2cccc(Cl)c2)ccc1-n1cnc(C)n1 [Example 6, N-[2-(3-chlorophenyl)ethyl]-3-methoxy-4-(3-methyl-[1,2,4]triazol-1-yl)benzamide]",IC50,[2],4210 nM
"Cc1cn(-c2ccc(C(=O)NCC3(c4cccc(C(F)(F)F)c4)CCOCC3)cc2F)cn1 [Example 7, 3-fluoro-4-(4-methyl-1H-imidazol-1-yl)-N-({4-[3-(trifluoromethyl)phenyl]tetrahydro-2H-pyran-4-yl}methyl)benzamide, formic acid salt]",IC50,[2],2190 nM
"Cc1cn(-c2ccc(C(=O)NCCc3cccc(Cl)c3)cc2F)cn1 [Example 8, N-[2-(3-chlorophenyl)ethyl]-3-fluoro-4-(4-methyl-1H-imidazol-1-yl)benzamide]",IC50,[2],960 nM
"COc1cc(C(=O)NCc2csc3ccc(Cl)cc23)ccc1-n1cnc(C)c1 [Example 9, N-[(5-chloro-1-benzothien-3-yl)methyl]-3-methoxy-4-(4-methyl-1H-imidazol-1-yl)benzamide]",IC50,[1],158 nM
"COc1cc(C(=O)Nc2[nH]nc(C)c2-c2cccc(C(F)(F)F)c2)ccc1-n1cnc(C)c1 [Example 10, 3-methoxy-4-(4-methyl-1H-imidazol-1-yl)-N-{3-methyl-4-[3-(trifluoro-methyl)phenyl]-1H-pyrazol-5-yl}benzamide]",IC50,[1],245 nM
"COc1cc(C(=O)N2CC[C@@H](Oc3ccccc3C(F)(F)F)C2)ccc1-n1cnc(C)c1 [Example 11, 1-[2-methoxy-4-({(3R)-3-[2-(trifluoromethyl)phenoxy]pyrrolidin-1-yl}carbonyl)phenyl]-4-methyl-1H-imidazole]",IC50,[1],96 nM
"COc1cc(C(=O)NCC2(c3ccc(F)cc3)CCC2)ccc1-n1cnc(C)c1 [Example 13, N-{[1-(4-fluorophenyl)cyclobutyl]methyl}-3-methoxy-4-(4-methyl-1H-imidazol-1-yl) benzamide]",IC50,"read-out: Aβ 42 IC50, Geometric mean of 26 determinations, human WT-APP overexpressing CHO cells",261 nM
"COc1cc(C(=O)NCc2cccc(C(F)(F)F)c2)ccc1-n1cnc(C)c1 [Example 14, 3-methoxy-4-(4-methyl-1H-imidazol-1-yl)-N-[3-(trifluoro-methyl)benzyl] benzamide]",IC50,[3],447 nM
"COc1cc(C(=O)NCc2cc3cc(Cl)ccc3[nH]2)ccc1-n1cnc(C)c1 [Example 15, N-[(5-chloro-1H-indol-2-yl)methyl]-3-methoxy-4-(4-methyl-1H-imidazol-1-yl)benzamide]",IC50,[1],547 nM
"COc1cc(C(=O)NCc2cnc(-c3ccccc3)s2)ccc1-n1cnc(C)c1 [Example 16, 3-methoxy-4-(4-methyl-1H-imidazol-1-yl)-N-[(2-phenyl-1,3-thiazol-5-yl)methyl] benzamide]",IC50,[3],283 nM
"COc1cc(C(=O)NCc2noc3ccc(Cl)cc23)ccc1-n1cnc(C)c1 [Example 17, N-[(5-chloro-1,2-benz-isoxazol-3-yl)methyl]-3-methoxy-4-(4-methyl-1H-imidazol-1-yl) benzamide]",IC50,[3],371 nM
"COc1cc(C(=O)N2CC(c3cccc(Cl)c3)C2)ccc1-n1cnc(C)c1 [Example 18, 1-(4-{[3-(3-chlorophenyl)azetidin-1-yl]carbonyl}-2-methoxy-phenyl)-4-methyl-1H-imidazole]",IC50,[1],660 nM
"COc1cc(C(=O)NCC2(c3cccc(C(F)(F)F)c3)CCOCC2)ccc1-n1cnc(C)c1 [Example 19, 3-methoxy-4-(4-methyl-1H-imidazol-1-yl)-N-({4-[3-(tri-fluoromethyl)phenyl]tetrahydro-2H-pyran-4-yl}methyl) benzamide]",IC50,[3],757 nM
"COc1cc(C(=O)N(C)Cc2cccc(C(F)(F)F)c2)ccc1-n1cnc(C)c1 [Example 20, 3-methoxy-N-methyl-4-(4-methyl-1H-imidazol-1-yl)-N-[3-(trifluoro-methyl)benzyl] benzamide]",IC50,[3],997 nM
"COc1cc(C(=O)NCCc2cccc(Cl)c2)ccc1-n1cnc(C)c1 [Example 21, N-[2-(3-chloro-phenyl)ethyl]-3-methoxy-4-(4-methyl-1H-imidazol-1-yl) benzamide]",IC50,[3],629 nM
"COc1cc(C(=O)N(C)Cc2ccc3ccccc3c2)ccc1-n1cnc(C)c1 [Example 22, 3-methoxy-N-methyl-4-(4-methyl-1H-imidazol-1-yl)-N-(2-naphthyl-methyl) benzamide]",IC50,[3],977 nM
"COc1cc(C(=O)N2CCCC[C@H]2c2ccc(C(F)(F)F)cc2)ccc1-n1cnc(C)c1 [Example 23, (2S)-1-[3-methoxy-4-(4-methyl-1H-imidazol-1-yl)benzoyl]-2-[4-(trifluoro-methyl)phenyl] piperidine]",IC50,[1],838 nM
"COc1cc(C(=O)NCCc2cccc(C(F)(F)F)c2)ccc1-n1cnc(C)c1 [Example 24, 3-methoxy-4-(4-methyl-1H-imidazol-1-yl)-N-{2-[3-(tri-fluoromethyl)phenyl]ethyl} benzamide]",IC50,[3],438 nM
"COc1cc(C(=O)NCCc2c[nH]c3ccc(Cl)cc23)ccc1-n1cnc(C)c1 [Example 25, N-[2-(5-chloro-1H-indol-3-yl)ethyl]-3-methoxy-4-(4-methyl-1H-imidazol-1-yl) benzamide]",IC50,[3],195 nM
"COc1cc(C(=O)NC(C)(C)c2ccc(F)c(F)c2)ccc1-n1cnc(C)c1 [Example 26, N-[1-(3,4-difluoro-phenyl)-1-methylethyl]-3-methoxy-4-(4-methyl-1H-imidazol-1-yl) benzamide]",IC50,[3],787 nM
"COc1cc(C(=O)NCC2(c3ccccc3)CCCC2)ccc1-n1cnc(C)c1 [Example 27, 3-methoxy-4-(4-methyl-1H-imidazol-1-yl)-N-[(1-phenyl-cyclopentyl)methyl] benzamide]",IC50,[3],175 nM
"COc1cc(C(=O)NCC2(c3ccc(C(F)(F)F)cc3)CCOCC2)ccc1-n1cnc(C)c1 [Example 28, 3-methoxy-4-(4-methyl-1H-imidazol-1-yl)-N-({4-[4-(tri-fluoromethyl)phenyl]tetrahydro-2H-pyran-4-yl}methyl) benzamide]",IC50,[3],188 nM
"COc1cc(C(=O)NC(CCC(C)C)c2ccc(C(F)(F)F)cc2)ccc1-n1cnc(C)c1 (stereo not drawn) [Example 29, 3-methoxy-4-(4-methyl-1H-imidazol-1-yl)-N-{4-methyl-1-[4-(trifluoro-methyl)phenyl]pentyl} benzamide]",IC50,[3],861 nM
"COc1cc(C(=O)NCC2(c3ccc(Cl)cc3)CC2)ccc1-n1cnc(C)c1 [Example 30, N-{[1-(4-chlorophenyl)cyclopropyl]methyl}-3-methoxy-4-(4-methyl-1H-imidazol-1-yl) benzamide]",IC50,[3],231 nM
"COc1cc(C(=O)NCC2(c3cccc(C(F)(F)F)c3)CCC2)ccc1-n1cnc(C)c1 [Example 31, 3-methoxy-4-(4-methyl-1H-imidazol-1-yl)-N-({1-[3-(tri-fluoromethyl)phenyl]cyclobutyl}methyl) benzamide]",IC50,[3],298 nM
"COc1cc(C(=O)NC(C)(C)c2cccc(C(F)(F)F)c2)ccc1-n1cnc(C)c1 [Example 32, 3-methoxy-4-(4-methyl-1H-imidazol-1-yl)-N-{1-methyl-1-[3-(trifluoro-methyl)phenyl]ethyl} benzamide]",IC50,[3],619 nM
"COc1cc(C(=O)NCC2(c3ccc(C(F)(F)F)cc3)CCCC2)ccc1-n1cnc(C)c1 [Example 33, 3-methoxy-4-(4-methyl-1H-imidazol-1-yl)-N-({1-[4-(trifluoro-methyl)phenyl]cyclopentyl}methyl) benzamide, formic acid salt]",IC50,[3],139 nM
"COc1cc(C(=O)N2CC[C@H](Oc3ccccc3C(F)(F)F)C2)ccc1-n1cnc(C)c1 [Example 34, 1-[2-methoxy-4-({(3S)-3-[2-(trifluoro-methyl)phenoxy]pyrrolidin-1-yl}carbonyl)phenyl]-4-methyl-1H-imidazole, formic acid salt]",IC50,[1],297 nM
